pIC50: −log10 of the molar value.
What was measured:
[1] = system: GCSF induced pSTAT3 in human neutrophils; test: JAK human neutrophil assay (pSTAT3 ELISA); settings: 0.25 h, read-out: IC50 (inhibition of pSTAT3)
[2] = system: CNL carrying a JAK-activating CSF3R mutation; settings: one patient with CNL carrying a JAK-activating CSF3R mutation; cited from earlier work

pIC50 [1]: > 7.00
SMILES: N#CCC(C1CCCC1)n1cc(-c2ncnc3[nH]ccc23)cn1 (stereo in doubt) [ruxolitinib, (3R)-3-cyclopentyl-3-[4-(7H-pyrrolo[2,3-d]pyrimidin-4-yl)-1H-pyrazol-1-yl]propanenitrile, reference compound]
clinical improvement [2]: Marked clinical improvement
